Assay results published in patent US9329188B2, “Method for detecting invasive microvesicles derived from tumor cells” (University of Notre Dame, priority 2010, dated 2016).

Key:
[1] = test system: parental LOX and LOXARF6-GTP cells; test: Microvesicle shedding: microvesicles released into media isolated and quantitated for protein, or surface microvesicles scored; format: cell-based
Experimental: Data from 5 independent experiments is plotted. Standard error bars are shown.
(§1) Standard error bars are shown.
Released microvesicles were isolated and quantitated for protein. The average of three independent experiments with standard error bars for each experimental condition is shown.
Parental LOX and LOXARF6-GTP were treated with 10 μM ML-7 for 2 hrs. Microvesicles released were isolated, quantitated for protein, and the data is shown as fold change in shedding relative to untreated LOX cells.
The total protein content of lysed microvesicles can be calculated, for example by using the Bradford assay (BioRad). This assay utilizes a spectroscopic analysis procedure to measure the concentration of protein in a solution.

phospho-MLC [2] = test: Phospho-MLC in cell lysates by western blotting, parental LOX and LOXARF6-GTP cells; format: cell-based
Experimental: Additional lanes on the immunoblot between lanes 2 and 3 were spliced out. Band density was measured by densitometric scanning.
(§2) Cell lines as indicated were treated with ML-7, and cell lysates were probed for phospho-MLC and α-tubulin by Western blotting. Band density was measured by densitometric scanning. Fold increase in the ratio of phospho-MLC to α-tubulin in ML-7 treated cells relative to untreated cells is shown.
Lysates of parental LOX and LOXARF6-GTP treated with Go6976 […] for 2 hrs at 37° C. were probed for phospho-MLC and α-tubulin by Western blotting.

phospho-MLC [3] = test: Phospho-MLC in cell lysates by western blotting, LOXARF6-GDP cells; format: cell-based; details: Go6976 10 μM, ML-7 10 μM, U0126 30 μM for 2 hrs at 37° C.
Experimental: Cell lysates were probed for phospho-MLC, phospho-ERK and α-tubulin by western blotting.
as §2

PC3 and SW480 cell lines = details: MEK inhibition
Excerpt: Vesicle shedding was examined in other tumor cell lines; SW480, a colon carcinoma cell line, PC3, a prostate adenocarcinoma cell line, and MDA-MB-231, an invasive breast tumor cell line.

ERK = details: cells treated with 1-butanol
Experimental: Studies have shown that ARF6 stimulates phospholipase D (PLD) activity (C. D'Souza-Schorey et al., Nat. Rev. Mol. Cell Biol. 7, 347-58 (2006)). […] Here, ARF6 regulated PLD activity and its involvement with ERK activation was tested. First, phospho-ERK levels upon PLD inactivation were examined. […] Next, primary alcohols were used to inhibit PLD, which results in the formation of phosphatidylalcohol at the expense of phosphatidic acid by replacing water.

LOX cells = details: cells expressing constitutively activated MEK; 1-butanol
Excerpt: Next, the role of phospho-ERK levels in microvesicle shedding was investigated. Specifically, microvesicle shedding was examined in LOXARF6-GDP cells after phospho-ERK levels were restored, or after stimulating PLD activity through pathways independent of ARF6. […] Finally, the effect of 1-butanol on microvesicle shedding induced by expression of constitutively activated MEK was investigated.

LOXARF6-GDP cells = test: Microvesicle shedding, cells with microvesicles at the cell surface scored; format: cell-based; details: LOXARF6-GDP cells treated with propranolol or atenolol
Excerpt: as §1
The treated cells were visualized, and those with microvesicles present at the cell surface were scored as described above.

phospho-ERK = test: Phospho-ERK and total-ERK in cell lysates, western blotting with densitometry; format: cell-based; details: LOXARF6-GDP cells; propranolol (0.1 mM), atenolol (10 uM)
Excerpt: The treated cells were probed for phospho-ERK and total-ERK. Band intensities were quantified by densitometry. The average of 3 independent experiments is plotted and standard error bars are shown.

cleaved caspase 3 = test: Cleaved caspase 3 as sign of apoptosis; format: cell-based; details: cells treated with okadaic acid, compared with LOX cells expressing mutant ARF6
[4] = LOX cells treated with blebbistatin or latrunculin A

## N#CC(=C(/N)Sc1ccccc1N)/C(C#N)=C(\N)Sc1ccccc1N [U0126]
[1]
  basal as well as ARF6-GTP enhanced microvesicle shedding: significant inhibition
phospho-MLC [2]; U0126 (30 μM)
  phospho-MLC levels: inhibition of phospho-MLC was evident
phospho-MLC [3]
  phospho-MLC levels / MLC phosphorylation: no inhibition
PC3 and SW480 cell lines
  microvesicle shedding: blocked microvesicle shedding

## CCCCO [1-butanol]
[1]; LOX cells, 0.3% 1-butanol for 30 min, cells with eight or more surface microvesicles scored
  microvesicle shedding: inhibits
ERK
  ERK activation: inhibits
LOX cells
  microvesicle shedding induced by constitutively activated MEK: little to no effect

## Cn1c2ccccc2c2c3c(c4c5ccccc5n(CCC#N)c4c21)CNC3=O [Go6976]
phospho-MLC [2]; Go6976 for 2 hrs at 37° C.
  phospho-MLC levels: no decrease
phospho-MLC [3]
  phospho-MLC levels / MLC phosphorylation: decreased

## CC(C)NCC(O)COc1ccc(CC(N)=O)cc1 (centres unmarked) [atenolol]
LOXARF6-GDP cells
  microvesicle shedding / release: did not have any effect
phospho-ERK
  phospho-ERK levels: did not have any effect

## O=S(=O)(c1cccc2c(I)cccc12)N1CCCNCC1 [ML-7]
[1]; parental LOX and LOXARF6-GTP cells, 10 μM ML-7 for 2 hrs
  microvesicle shedding: blocks
phospho-MLC [2]; 10 μM ML-7 for 2 hrs
  MLC phosphorylation: blocked
phospho-MLC [3]; listed as ML7
  phospho-MLC levels / MLC phosphorylation: little to no effect

## CC(C)NCC(O)COc1cccc2ccccc12 (centres unmarked) [propranolol]
LOXARF6-GDP cells
  microvesicle shedding / release: induced microvesicle shedding
LOXARF6-GDP cells; listed as Propranolol
  microvesicle shedding / release: restored vesicle shedding
phospho-ERK
  phospho-ERK levels: restored phospho-ERK levels

## C=C1[C@@H](O)[C@@H]2O[C@]3(CC[C@H](/C=C/[C@@H](C)[C@@H]4CC(C)=C[C@@]5(O[C@H](C[C@@](C)(O)C(=O)O)CC[C@H]5O)O4)O3)CC[C@H]2O[C@@H]1[C@@H](O)C[C@H](C)[C@H]1O[C@@]2(CCCCO2)CC[C@H]1C [okadaic acid]
Cleaved caspase 3
  cleaved caspase 3 in cells: present in a higher proportion of the cells

## C/C1=C/C(=O)O[C@@H]2C[C@@H](CC[C@H](C)/C=C\C=C\CC1)O[C@@](O)([C@@H]1CSC(=O)N1)C2 [latrunculin A]
[1]; [4]
  microvesicle shedding: profoundly affected microvesicle shedding
[1]; LOX cells treated with latrunculin A
  treated cells exhibiting clustered microvesicles at the cell surface: 85-90%
[1]; parental LOX and LOXARF6-GTP cells, 2 μM Latrunculin A for 45 min, released microvesicles quantitated for protein
  release of microvesicles: inhibited

## Cc1ccc2c(c1)C(=O)C1(O)CCN(c3ccccc3)C1=N2 (centres unmarked) [blebbistatin]
[1]; LOX cells in the presence of blebbistatin
  microvesicle formation: microvesicles do not form
[1]; [4]
  microvesicle shedding: profoundly affected microvesicle shedding
